Data published in US20260137703A1, “2-AMINO-PYRIDO[2,3-D]PYRIMIDIN-7(8H)-ONE AND 7-AMINO-1-PYRIMIDO[4,5-D]PYRIMIDIN-2(1 H)-ONE DERIVATIVES AS EGFR INHIBITORS FOR THE TREATMENT OF CANCER” (Cancer Research Technology Limited, priority 2022, published 2026).

Key:
[1] = target: T1, Phospho-EGFR (Tyr1068) in H1975 cells (Homo sapiens, UniProt P00533, L858R/T790M); assay: HTRF pEGFR/total EGFR in H1975 cells; assay type: cell-based; conditions: ratio pEGFR/total EGFR, compound 3 hours
T1 construct: host or cells: H1975
Summary of the method: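 Readout is the phospho-EGFR (Tyr1068) to total EGFR HTRF ratio, expressed relative to 0 μM control. Adhered H1975 cells were exposed to compound for 3 hours at 0.1% DMSO, duplicate wells, then lysed for 30 min at room temperature before two-wavelength fluorescence reading.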

[2] = target: T2, Phospho-EGFR (Tyr1068) in H1975 C797S cells (CRISPR-edited EGFR C797S) (Homo sapiens, UniProt P00533, C797S/L858R/T790M); assay: HTRF pEGFR/total EGFR in H1975 C797S cells; assay type: cell-based; conditions: ratio pEGFR/total EGFR, compound 3 hours
T2 construct: host or cells: H1975 C797S (CRISPR-edited)
Summary of the method: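 Readout is the HTRF-measured Tyr1068 phospho-EGFR to total EGFR ratio, normalised to the 0 μM control as percent. Preceding this, CRISPR-edited H1975 C797S cells, plated 24 h earlier, were exposed 3 h to duplicate compound doses in medium with 0.1% DMSO, then lysed on a shaker.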

[3] = target: T3, Phospho-EGFR (Tyr1068) in A431 cells (Homo sapiens, UniProt P00533); assay: HTRF pEGFR/total EGFR in A431 cells with EGF stimulation; assay type: cell-based; conditions: ratio pEGFR/total EGFR, compound 2.5 hours then 100 ng/ml EGF 30 mins
T3 construct: endogenous in cells; host or cells: A431
Summary of the method: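 Values are pEGFR(Tyr1068)/total EGFR HTRF ratios (665/620 nm) given as percent of the 0 μM control. Adhered A431 cells (20,000 per well, 24 h) had 2.5 h compound pretreatment in 0.1% DMSO, then 30 min of 100 ng/ml EGF before lysis.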

[4] = target: CtermHisTag-mEGFR Wild type (Homo sapiens, UniProt P00533); assay: biochemical
CtermHisTag-mEGFR Wild type, sequence (P00533 whole entry): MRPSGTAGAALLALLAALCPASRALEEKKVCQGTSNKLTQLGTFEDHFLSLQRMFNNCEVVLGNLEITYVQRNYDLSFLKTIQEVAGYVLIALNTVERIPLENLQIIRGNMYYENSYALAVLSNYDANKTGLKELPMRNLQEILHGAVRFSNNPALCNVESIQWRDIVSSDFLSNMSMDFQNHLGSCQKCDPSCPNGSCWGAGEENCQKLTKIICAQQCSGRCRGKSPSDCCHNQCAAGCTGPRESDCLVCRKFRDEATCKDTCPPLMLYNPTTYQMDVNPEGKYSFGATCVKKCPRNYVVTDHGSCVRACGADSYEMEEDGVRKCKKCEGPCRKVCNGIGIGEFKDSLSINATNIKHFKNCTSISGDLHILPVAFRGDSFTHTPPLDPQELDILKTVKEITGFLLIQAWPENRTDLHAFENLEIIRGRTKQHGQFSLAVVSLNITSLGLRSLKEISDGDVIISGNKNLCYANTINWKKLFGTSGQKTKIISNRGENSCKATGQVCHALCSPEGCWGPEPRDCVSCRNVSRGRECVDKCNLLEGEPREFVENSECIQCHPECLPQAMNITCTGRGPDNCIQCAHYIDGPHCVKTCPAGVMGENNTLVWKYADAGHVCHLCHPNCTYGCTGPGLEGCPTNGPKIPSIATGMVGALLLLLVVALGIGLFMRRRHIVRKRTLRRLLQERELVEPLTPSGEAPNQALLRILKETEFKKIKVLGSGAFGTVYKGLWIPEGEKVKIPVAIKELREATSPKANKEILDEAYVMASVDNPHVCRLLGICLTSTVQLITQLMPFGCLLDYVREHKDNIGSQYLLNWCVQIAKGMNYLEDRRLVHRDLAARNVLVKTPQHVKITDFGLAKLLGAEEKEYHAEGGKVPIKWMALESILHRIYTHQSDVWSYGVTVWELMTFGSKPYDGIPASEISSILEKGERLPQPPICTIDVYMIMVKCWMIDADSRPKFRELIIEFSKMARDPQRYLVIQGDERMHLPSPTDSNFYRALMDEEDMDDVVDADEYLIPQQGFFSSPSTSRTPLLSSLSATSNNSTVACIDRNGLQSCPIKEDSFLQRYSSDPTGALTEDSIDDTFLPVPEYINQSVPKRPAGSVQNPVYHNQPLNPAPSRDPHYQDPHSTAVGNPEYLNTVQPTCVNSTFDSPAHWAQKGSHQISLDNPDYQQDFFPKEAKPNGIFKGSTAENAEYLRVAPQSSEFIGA

T2 sequence (P00533 25-1210 T790M/C797S/L858R): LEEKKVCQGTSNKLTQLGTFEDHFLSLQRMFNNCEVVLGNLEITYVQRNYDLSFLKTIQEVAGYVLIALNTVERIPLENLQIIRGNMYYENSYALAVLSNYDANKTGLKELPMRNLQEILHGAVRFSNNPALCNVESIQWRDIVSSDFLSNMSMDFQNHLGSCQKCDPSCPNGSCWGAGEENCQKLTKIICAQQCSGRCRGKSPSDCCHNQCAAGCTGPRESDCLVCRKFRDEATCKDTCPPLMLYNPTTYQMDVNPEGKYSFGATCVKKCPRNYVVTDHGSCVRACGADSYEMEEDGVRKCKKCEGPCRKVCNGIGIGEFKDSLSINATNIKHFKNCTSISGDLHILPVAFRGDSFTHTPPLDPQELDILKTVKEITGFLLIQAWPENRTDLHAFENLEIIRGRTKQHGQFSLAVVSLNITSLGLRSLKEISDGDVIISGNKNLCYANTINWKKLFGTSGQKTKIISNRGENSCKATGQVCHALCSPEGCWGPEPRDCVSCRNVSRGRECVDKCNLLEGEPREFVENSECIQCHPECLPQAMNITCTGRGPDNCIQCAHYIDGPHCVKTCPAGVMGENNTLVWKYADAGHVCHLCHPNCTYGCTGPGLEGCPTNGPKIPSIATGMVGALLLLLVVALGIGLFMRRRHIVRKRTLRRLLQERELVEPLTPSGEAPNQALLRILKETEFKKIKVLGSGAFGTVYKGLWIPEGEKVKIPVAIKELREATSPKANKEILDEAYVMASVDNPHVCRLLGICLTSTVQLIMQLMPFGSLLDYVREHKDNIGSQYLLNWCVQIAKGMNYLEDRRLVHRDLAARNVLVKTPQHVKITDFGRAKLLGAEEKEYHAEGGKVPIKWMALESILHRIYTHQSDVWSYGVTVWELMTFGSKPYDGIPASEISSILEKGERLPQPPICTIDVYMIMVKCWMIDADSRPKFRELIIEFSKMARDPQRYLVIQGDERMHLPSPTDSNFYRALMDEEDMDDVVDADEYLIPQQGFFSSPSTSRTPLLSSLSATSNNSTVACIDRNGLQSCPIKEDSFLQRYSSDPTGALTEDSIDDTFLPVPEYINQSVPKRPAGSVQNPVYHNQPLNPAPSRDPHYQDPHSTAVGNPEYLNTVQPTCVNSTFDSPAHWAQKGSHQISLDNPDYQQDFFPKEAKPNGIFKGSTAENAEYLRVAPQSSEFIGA
T1 sequence (P00533 25-1210 T790M/L858R): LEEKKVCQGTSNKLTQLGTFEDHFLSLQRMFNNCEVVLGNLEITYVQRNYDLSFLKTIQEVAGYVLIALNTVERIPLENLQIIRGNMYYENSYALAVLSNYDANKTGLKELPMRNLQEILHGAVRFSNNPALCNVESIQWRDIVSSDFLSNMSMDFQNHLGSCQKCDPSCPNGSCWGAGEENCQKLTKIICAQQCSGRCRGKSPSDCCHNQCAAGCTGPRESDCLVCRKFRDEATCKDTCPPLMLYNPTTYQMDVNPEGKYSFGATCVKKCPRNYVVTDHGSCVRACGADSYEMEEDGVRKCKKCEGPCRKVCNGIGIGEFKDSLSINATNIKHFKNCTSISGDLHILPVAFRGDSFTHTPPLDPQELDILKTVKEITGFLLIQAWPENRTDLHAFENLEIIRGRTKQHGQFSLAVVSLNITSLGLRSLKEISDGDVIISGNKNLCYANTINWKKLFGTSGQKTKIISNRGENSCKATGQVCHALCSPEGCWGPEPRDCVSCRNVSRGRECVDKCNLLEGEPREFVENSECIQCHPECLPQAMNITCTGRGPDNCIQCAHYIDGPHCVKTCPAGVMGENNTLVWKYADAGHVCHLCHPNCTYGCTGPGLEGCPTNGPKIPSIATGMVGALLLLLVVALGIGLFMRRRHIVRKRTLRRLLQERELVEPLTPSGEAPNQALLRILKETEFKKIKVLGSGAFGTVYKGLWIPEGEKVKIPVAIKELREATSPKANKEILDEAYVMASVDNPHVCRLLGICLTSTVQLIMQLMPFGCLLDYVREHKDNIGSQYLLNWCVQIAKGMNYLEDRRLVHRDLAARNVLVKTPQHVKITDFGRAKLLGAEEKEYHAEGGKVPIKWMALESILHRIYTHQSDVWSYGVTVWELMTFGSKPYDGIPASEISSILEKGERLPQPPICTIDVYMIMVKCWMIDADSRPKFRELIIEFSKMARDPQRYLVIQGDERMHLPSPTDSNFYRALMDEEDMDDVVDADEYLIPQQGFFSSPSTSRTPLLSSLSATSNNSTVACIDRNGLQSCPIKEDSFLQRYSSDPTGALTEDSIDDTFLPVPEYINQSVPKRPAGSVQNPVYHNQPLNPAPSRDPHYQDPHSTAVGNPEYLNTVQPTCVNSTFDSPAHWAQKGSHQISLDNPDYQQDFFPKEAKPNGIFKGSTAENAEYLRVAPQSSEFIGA
T3 sequence (P00533 25-1210): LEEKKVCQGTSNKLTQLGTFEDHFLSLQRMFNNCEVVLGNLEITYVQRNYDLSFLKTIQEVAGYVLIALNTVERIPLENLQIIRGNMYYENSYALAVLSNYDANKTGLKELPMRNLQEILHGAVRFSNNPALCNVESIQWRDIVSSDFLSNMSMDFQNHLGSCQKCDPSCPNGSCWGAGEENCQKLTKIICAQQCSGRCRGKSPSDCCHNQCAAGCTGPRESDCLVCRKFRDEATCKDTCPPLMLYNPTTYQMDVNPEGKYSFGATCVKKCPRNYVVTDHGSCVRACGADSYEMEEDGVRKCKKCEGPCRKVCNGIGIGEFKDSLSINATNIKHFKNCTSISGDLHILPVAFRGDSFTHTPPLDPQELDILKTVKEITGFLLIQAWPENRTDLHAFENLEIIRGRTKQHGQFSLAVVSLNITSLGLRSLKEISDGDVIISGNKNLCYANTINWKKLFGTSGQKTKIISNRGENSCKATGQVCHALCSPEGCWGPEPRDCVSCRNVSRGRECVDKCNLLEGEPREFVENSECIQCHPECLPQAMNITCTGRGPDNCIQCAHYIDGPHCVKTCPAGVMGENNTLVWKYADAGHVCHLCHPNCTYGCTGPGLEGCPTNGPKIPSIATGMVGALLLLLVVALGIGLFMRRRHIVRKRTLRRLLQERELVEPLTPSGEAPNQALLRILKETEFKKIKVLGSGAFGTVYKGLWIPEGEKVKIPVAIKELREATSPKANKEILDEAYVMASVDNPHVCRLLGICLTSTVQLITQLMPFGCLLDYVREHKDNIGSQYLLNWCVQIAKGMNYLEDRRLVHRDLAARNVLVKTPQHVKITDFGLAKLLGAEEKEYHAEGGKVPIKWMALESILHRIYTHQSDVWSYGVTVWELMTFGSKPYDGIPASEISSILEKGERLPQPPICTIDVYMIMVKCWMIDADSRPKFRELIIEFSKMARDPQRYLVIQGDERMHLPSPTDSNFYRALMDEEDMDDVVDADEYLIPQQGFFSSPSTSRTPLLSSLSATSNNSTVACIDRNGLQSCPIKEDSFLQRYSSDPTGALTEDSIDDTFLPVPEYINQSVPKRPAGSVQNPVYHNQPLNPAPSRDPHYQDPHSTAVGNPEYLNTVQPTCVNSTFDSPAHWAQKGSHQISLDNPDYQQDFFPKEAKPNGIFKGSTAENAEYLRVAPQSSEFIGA

SMILES | IC50 [1] | IC50 [2] | IC50 [3] | IC50 [4]
C#Cc1c(C)c(=O)n(Cc2cnc[nH]2)c2nc(Nc3ccc(N4CCN(C)CC4)cc3)ncc12 [Example 111, 5-ethynyl-8-(3H-imidazol-4-ylmethyl)-6-methyl-2-{[4-(4-methylpiperazin-1-yl)phenyl]amino}pyrido[2,3-d]pyrimidin-7-one] | 1000 to 3000 nM | 1000 to 3000 nM | > 3000 nM | 1000 to 10000 nM
C#Cc1c(C)c(=O)n(Cc2ccnn2C)c2nc(Nc3ccc(N4CCN(C)CC4)cc3)ncc12 [Example 112, 5-ethynyl-6-methyl-2-{[4-(4-methylpiperazin-1-yl)phenyl]amino}-8-[(2-methylpyrazol-3-yl)methyl]pyrido[2,3-d]pyrimidin-7-one] | 1000 to 3000 nM | 1000 to 3000 nM | > 3000 nM | 1000 to 10000 nM
C#Cc1c(C)c(=O)n(Cc2ccno2)c2nc(Nc3ccc(N4CCN(C)CC4)cc3)ncc12 [Example 113, 5-ethynyl-6-methyl-2-{[4-(4-methylpiperazin-1-yl)phenyl]amino}-8-(1,2-oxazol-5-ylmethyl)pyrido[2,3-d]pyrimidin-7-one] | 1000 to 3000 nM | 1000 to 3000 nM | 1000 to 3000 nM | 1000 to 10000 nM
C#Cc1c(C)c(=O)n(Cc2ncco2)c2nc(Nc3ccc(N4CCN(C)CC4)cc3)ncc12 [Example 114, 5-ethynyl-6-methyl-2-{[4-(4-methylpiperazin-1-yl)phenyl]amino}-8-(1,3-oxazol-2-ylmethyl)pyrido[2,3-d]pyrimidin-7-one] | 1000 to 3000 nM | 1000 to 3000 nM | 1000 to 3000 nM | < 1000 nM
C#Cc1c(C)c(=O)n(Cc2cccnc2)c2nc(Nc3ccc(N4CCN(C)CC4)cc3)ncc12 [Example 115, 5-ethynyl-6-methyl-2-{[4-(4-methylpiperazin-1-yl)phenyl]amino}-8-(pyridin-3-ylmethyl)pyrido[2,3-d]pyrimidin-7-one] | 500 to 1000 nM | 1000 to 3000 nM | 1000 to 3000 nM | < 1000 nM
C#Cc1c(C)c(=O)n(Cc2cccnc2)c2nc(Nc3ccc(N4CCN(C)CC4)cc3)ncc12 [Example 116, 5-ethynyl-6-methyl-2-{[4-(4-methylpiperazin-1-yl)phenyl]amino}-8-(pyridin-3-ylmethyl)pyrido[2,3-d]pyrimidin-7-one] | > 3000 nM | > 3000 nM | 1000 to 3000 nM | 1000 to 10000 nM
C#Cc1cc(=O)n(C2CC(=O)N(C)C2)c2nc(Nc3ccc(N4CCN(C)CC4)cc3)ncc12 (centres unmarked) [Example 117, 4-(5-ethynyl-2-{[4-(4-methylpiperazin-1-yl)phenyl]amino}-7-oxopyrido[2,3-d]pyrimidin-8-yl)-1-methylpyrrolidin-2-one] | > 3000 nM | > 3000 nM | > 3000 nM | > 10000 nM
C#Cc1cc(=O)n(Cc2ccn(C)n2)c2nc(Nc3ccc(N4CCN(C)CC4)cc3)ncc12 [Example 118, 5-ethynyl-2-{[4-(4-methylpiperazin-1-yl)phenyl]amino}-8-[(1-methylpyrazol-3-yl)methyl]pyrido[2,3-d]pyrimidin-7-one] | < 500 nM | < 500 nM | 1000 to 3000 nM | < 1000 nM
C#Cc1cc(=O)n(CC2CCNC2=O)c2nc(Nc3ccc(N4CCN(C)CC4)cc3)ncc12 (centres unmarked) [Example 119, 3-[(5-ethynyl-2-{[4-(4-methylpiperazin-1-yl)phenyl]amino}-7-oxopyrido[2,3-d]pyrimidin-8-yl)methyl]pyrrolidin-2-one] | 500 to 1000 nM | 500 to 1000 nM | > 3000 nM | > 10000 nM
C#Cc1cc(=O)[nH]c2nc(Nc3ccccc3OC)ncc12 [Example 120, 5-ethynyl-2-((2-methoxyphenyl)amino)pyrido[2,3-d]pyrimidin-7(8H)-one] | > 3000 nM | > 3000 nM | > 3000 nM | 1000 to 10000 nM
C#Cc1c(-c2ccccc2Cl)c(=O)n(C)c2nc(Nc3ccc(N(C)CCN(C)C)cc3)ncc12 [Example 126] | 1000 to 3000 nM | > 3000 nM | 1000 to 3000 nM | < 1000 nM
C#Cc1c(-c2ccccc2Cl)c(=O)n(C)c2nc(Nc3ccc(N4CCN(C)CC4)cc3OC)ncc12 [Example 127, 6-(2-chlorophenyl)-5-ethynyl-2-{[2-methoxy-4-(4-methylpiperazin-1-yl)phenyl]amino}-8-methylpyrido[2,3-d]pyrimidin-7-one] | 500 to 1000 nM | 1000 to 3000 nM | 500 to 1000 nM | < 1000 nM
C#Cc1c(-c2ccccc2Cl)c(=O)n(C)c2nc(Nc3ccc(N4CCN(C)CC4)cc3)ncc12 [Example 128, 6-(2-chlorophenyl)-5-ethynyl-8-methyl-2-{[4-(4-methylpiperazin-1-yl)phenyl]amino}pyrido[2,3-d]pyrimidin-7-one] | 500 to 1000 nM | > 3000 nM | < 500 nM | < 1000 nM
C#Cc1c(-c2ccccc2Cl)c(=O)n(C)c2nc(Nc3ccc(OCCN(C)C)cc3)ncc12 [Example 129, 6-(2-chlorophenyl)-2-({4-[2-(dimethylamino)ethoxy]phenyl}amino)-5-ethynyl-8-methylpyrido[2,3-d]pyrimidin-7-one] | 500 to 1000 nM | > 3000 nM | 500 to 1000 nM | < 1000 nM
C#Cc1c(-c2ccccc2Cl)c(=O)n(C)c2nc(Nc3cccc(OC)c3)ncc12 [Example 131, 6-(2-chlorophenyl)-5-ethynyl-2-[(3-methoxyphenyl)amino]-8-methylpyrido[2,3-]pyrimidin-7-one] | 1000 to 3000 nM | > 3000 nM | > 3000 nM | 1000 to 10000 nM
C#Cc1c(-c2ccccc2Cl)c(=O)n(C)c2nc(Nc3cccc(CO)c3)ncc12 [Example 132, 6-(2-chlorophenyl)-5-ethynyl-2-{[3-(hydroxymethyl)phenyl]amino}-8-methylpyrido[2,3-]pyrimidin-7-one] | 500 to 1000 nM | 1000 to 3000 nM | 1000 to 3000 nM | < 1000 nM
C#Cc1c(-c2c(Cl)cccc2Cl)c(=O)n(C)c2nc(Nc3ccc(N(C)CCN(C)C)cc3)ncc12 [Example 134, 6-(2,6-dichlorophenyl)-2-[(4-{[2-(dimethylamino)ethyl](methyl)amino}phenyl)amino]-5-ethynyl-8-methylpyrido[2,3-d]pyrimidin-7-one] | > 3000 nM | > 3000 nM | > 3000 nM | > 10000 nM
C#Cc1c(-c2cccc(F)c2Cl)c(=O)n(C)c2nc(Nc3ccc(N(C)CCN(C)C)cc3)ncc12 [Example 135, 6-(2-chloro-3-fluorophenyl)-2-[(4-{[2-(dimethylamino)ethyl](methyl)amino}phenyl)amino]-5-ethynyl-8-methylpyrido[2,3-d]pyrimidin-7-one] | 500 to 1000 nM | 500 to 1000 nM | 1000 to 3000 nM | < 1000 nM
C#Cc1c(-c2cc(OC)ccc2Cl)c(=O)n(C)c2nc(Nc3ccc(N(C)CCN(C)C)cc3)ncc12 [Example 136, 6-(2-chloro-5-methoxyphenyl)-2-[(4-{[2-(dimethylamino)ethyl](methyl)amino}phenyl)amino]-5-ethynyl-8-methylpyrido[2,3-d]pyrimidin-7-one] | < 500 nM | 500 to 1000 nM | 1000 to 3000 nM | < 1000 nM
C#Cc1c(-c2cc(F)ccc2Cl)c(=O)n(C)c2nc(Nc3ccc(N(C)CCN(C)C)cc3)ncc12 [Example 137, 6-(2-chloro-5-fluorophenyl)-2-[(4-{[2-(dimethylamino)ethyl](methyl)amino}phenyl)amino]-5-ethynyl-8-methylpyrido[2,3-d]pyrimidin-7-one] | 500 to 1000 nM | < 500 nM | 1000 to 3000 nM | < 1000 nM
C#Cc1c(-c2ccncc2Cl)c(=O)n(C)c2nc(Nc3ccc(N(C)CCN(C)C)cc3)ncc12 [Example 139, 6-(3-chloropyridin-4-yl)-2-[(4-{[2-(dimethylamino)ethyl](methyl)amino}phenyl)amino]-5-ethynyl-8-methylpyrido [2,3-d]pyrimidin-7-one] | 1000 to 3000 nM | 1000 to 3000 nM | > 3000 nM | < 1000 nM
C#Cc1c(Nc2ccccc2)c(=O)n(C)c2nc(Nc3ccc(N(C)CCN(C)C)cc3)ncc12 [Example 144, 2-[(4-{[2-(dimethylamino)ethyl](methyl)amino}phenyl)amino]-5-ethynyl-8-methyl-6-(phenylamino)pyrido[2,3-d]pyrimidin-7-one] | 1000 to 3000 nM | 1000 to 3000 nM | < 500 nM | < 1000 nM
C#Cc1c(C2CC2)c(=O)n(C)c2nc(Nc3ccc(N4CCN(C)CC4)cc3)ncc12 [Example 148, 6-cyclopropyl-5-ethynyl-8-methyl-2-{[4-(4-methylpiperazin-1-yl)phenyl]amino}pyrido[2,3-d]pyrimidin-7-one] | > 3000 nM | > 3000 nM | > 3000 nM | > 10000 nM
